The record followed here is the NIST ThermoML archive (doi:10.1016/j.jct.2006.03.010).

For data set [1] the following is noted: 101 kPa, Liquid; for speed of sound: Linear variable-path acoustic interferometer.
A short description of data set [2]: xn = mol fraction of the nth substance listed. Particulars: 101 kPa, Liquid, x2 = 0; for speed of sound: Linear variable-path acoustic interferometer.

Numbers after ± are expanded uncertainties.

Take `CCCCO` [butan-1-ol]: in data set [1] (298.15 K), the mass density was 806.33 ± 0.5 kg/m3, the viscosity is given as 2.585 ± 0.034 mPa·s and the speed of sound was found to be 1235 ± 3 m/s. Besides, in data set [1] (308.15 K), the mass density is recorded as 798.38 ± 0.54 kg/m3, the viscosity was 2.012 ± 0.028 mPa·s and the speed of sound turned out to be 1210 ± 3 m/s.
Turning to `CCCCO` [butan-1-ol] + ClC(Cl)Cl, in data set [2] (298.15 K), the speed of sound was 1235 ± 3 m/s, the mass density was 806.33 ± 0.5 kg/m3 and the viscosity is on record as 2.585 ± 0.034 mPa·s. In data set [2] (308.15 K), the speed of sound is recorded as 1210 ± 3 m/s, the mass density turned out to be 798.38 ± 0.54 kg/m3 and the viscosity amounted to 2.012 ± 0.028 mPa·s.
Turning to `CCO` [ethanol], in data set [1] (298.15 K), the mass density was determined as 784.32 ± 0.39 kg/m3, the viscosity came to 1.084 ± 0.014 mPa·s and the speed of sound is 1144 ± 3 m/s. In data set [1] (308.15 K), the mass density is 775.51 ± 0.43 kg/m3, the viscosity amounted to 0.902 ± 0.013 mPa·s and the speed of sound was 1111 ± 3 m/s.
With `CCO` [ethanol] + ClC(Cl)Cl, in data set [2] (298.15 K), the speed of sound is given as 1144 ± 3 m/s, the mass density came to 784.32 ± 0.39 kg/m3 and the viscosity is listed as 1.084 ± 0.014 mPa·s. Also, in data set [2] (308.15 K), the speed of sound amounted to 1111 ± 3 m/s, the mass density was 775.51 ± 0.43 kg/m3 and the viscosity was 0.902 ± 0.013 mPa·s.
On to `CO` [methanol], for which, in data set [1] (298.15 K), the mass density amounted to 786.3 ± 0.39 kg/m3, the viscosity is 0.551 ± 0.009 mPa·s and the speed of sound came out at 1109 ± 3 m/s. Also, in data set [1] (308.15 K), the mass density came to 776.6 ± 0.43 kg/m3, the viscosity is 0.493 ± 0.009 mPa·s and the speed of sound is on record as 1076 ± 3 m/s.
Consider `CO` [methanol] + ClC(Cl)Cl, for which, in data set [2] (298.15 K), the speed of sound was found to be 1109 ± 3 m/s, the mass density turned out to be 786.3 ± 0.39 kg/m3 and the viscosity is reported as 0.551 ± 0.009 mPa·s. Besides, in data set [2] (308.15 K), the speed of sound was determined as 1076 ± 3 m/s, the mass density was 776.6 ± 0.43 kg/m3 and the viscosity is on record as 0.493 ± 0.009 mPa·s.
Turning to `CCCO` [propan-1-ol], in data set [1] (298.15 K), the mass density was 800.82 ± 0.4 kg/m3, the viscosity is listed as 1.95 ± 0.024 mPa·s and the speed of sound was 1212 ± 3 m/s. Also, in data set [1] (308.15 K), the mass density came to 792.51 ± 0.44 kg/m3, the viscosity was 1.533 ± 0.02 mPa·s and the speed of sound is 1177 ± 3 m/s.
For `CCCO` [propan-1-ol] + ClC(Cl)Cl, in data set [2] (298.15 K), the speed of sound was 1212 ± 3 m/s, the mass density is reported as 800.82 ± 0.4 kg/m3 and the viscosity is 1.95 ± 0.024 mPa·s. Besides, in data set [2] (308.15 K), the speed of sound turned out to be 1177 ± 3 m/s, the mass density is reported as 792.51 ± 0.44 kg/m3 and the viscosity is reported as 1.533 ± 0.02 mPa·s.
In the case of `ClC(Cl)Cl` [trichloromethane], in data set [1] (298.15 K), the mass density was determined as 1478.82 ± 1.2 kg/m3, the viscosity is listed as 0.556 ± 0.01 mPa·s and the speed of sound came out at 985 ± 3 m/s. Moreover, in data set [1] (308.15 K), the mass density is recorded as 1459.45 ± 1.2 kg/m3, the viscosity was found to be 0.513 ± 0.009 mPa·s and the speed of sound is reported as 950 ± 2 m/s.

The term mass density denotes mass per unit of volume. The viscosity is the internal friction of a fluid under shear. The term speed of sound denotes the propagation velocity of pressure waves in the medium.
